How the values were obtained:
[1] = system: primary keratinocytes of human skin; conditions: keratinocyte monolayer, MTT, 24 h; concentration based on the undiluted solution (2.5%) or the cream (=100%)
Procedure: In a preliminary experiment, the usable dose was determined.
For this test, the keratinocytes were seeded on 96-well plates and incubated with five dilutions of the solutions or the cream for 24 h. Subsequently, a vital dye was added and finally, the colour change caused by the conversion of the vital dye in living cells was photometrically quantified.
FIG. 1 and FIG. 2 show the determination of the usable dosage of the test substances. Cytotoxicity test with keratinocytes in monolayer culture after conversion of the vital dye MTT by living cells. The concentration data are based on the undiluted solutions or the cream (=100%). Treatment time=24 h. Untreated cultures served as negative controls. SDS served as a positive control (“dead control”). N=6+SEM
IC70 values were calculated by nonlinear regression (Hill Slope, GraphPad Prism 5.04). The term IC70 denotes the concentration at which the viability of the treated cell culture is reduced to 70% of the untreated control. IC70 is often referred to as the border between toxicity and non-toxic effect.

human skin = assay: Skin penetration determined by Raman spectroscopy on forearm of a subject; assay type: in vivo; conditions: for Calcium levoleucovorin penetrated into the skin per area: surface to depth of 30 μm
Procedure: In a further experiment it was examined if calcium levoleucovorin is able to penetrate skin. Penetration depth was determined by way of Raman spectroscopy. The measurement device was an inverse Raman microscope model 3510 with 60× oil immersion lens and evaluation software SkinTools of the company RiverD Rotterdam and the method were 10 profiles per application, measuring time of 5 seconds per measuring point, 7 steps of 2 μm, 4 steps of 4 μm, spectral range of 400-1800 cm^−1, at a laser excitation wavelength of 785 nm. Signals were generated with the software SkinTools that contains various skin and device specific spectra. The user can add their own spectra to the library. The evaluation is carried out via the CLS procedure (least squares method). The signals are output as a fit coefficient normalized to the fit coefficient of keratin.
For a quantitative indication of the result, a calibration must be carried out with standard series (see Tab. 1 and Tab. 2). First, the sensitivity of bovine serum albumin (BSA) is determined and the mass concentration BSA in g/ml is plotted against the BSA fit coefficient. A linear regression with fixed zero gives slope S. For the active substance, the molar concentration in mmol/ml is plotted against the drug coefficient multiplied by the BSA fit coefficient. This gives the slopes SA of the active ingredient. With the slopes, a so-called quantification factor of the drug can be created (SA/S=C). Multiplied by the factor C, the coefficient of fit of the active substance becomes the quantified value with the unit mmol/g of keratin.
The application of the drug or placebo (sodium gluconate) to the skin of a subject was done as follows: 20 μL was pipetted into an allergy patch and this was then stuck onto the forearm of a subject for a period of 30, 60, 120 and 240 minutes. At the end of the application time, the allergy patch was removed. Prior to determining the Raman profiles, the treated skin area was rubbed with a dry paper towel.

[2] = system: reconstructed skin models (epiCS); assay: Bioavailability: transport through reconstructed skin models into basal compartment (LC/MS); assay type: in vitro ADME, human
Excerpt: In order to test the bioavailability in tissues such as skin, reconstructed skin models (epiCS, CS-1001, CellSystems, Troisdorf) were used which are generated from primary human keratinocytes. These models show a barrier very similar to human skin. They are regularly used as test models for the approval-relevant determination of corrosive or irritating effects of cosmetic raw materials. The skin models can usually be treated with finished products, as they are intended for use by the consumer. Nevertheless, before the skin models are treated with the test products, an assessment of the tolerability of the models is made to avoid overdosing.
The skin models were cultured on a porous membrane as mentioned above. The skin cells growing on it separate an apical compartment (with the skin model) from a basal compartment (with the nutrient medium). Mass transport from the apical to the basal compartment is thus almost exclusively possible through the cells. The only alternative to this is paracellular diffusion, which however, due to the functional tight junctions, is only possible for a few molecules and to a very limited extent. To determine the bioavailability of the products, the barrier is checked for leaks before use by means of resistance measurements. […] Suitable skin models are then treated topically with the test products. After 4 h, 8 h and 24 h, samples of the medium were taken in the basal part of the models to check for the presence and concentration of folates. Each test product and controls are tested at a concentration of three replicates each. The studies were repeated to obtain results from two independent runs. The determination of the folate contents of the media samples was started with the analysis of the 24 h values.
The analysis of the media samples was carried out by way of a LC/MS method established at a commercial service provider. The sensitivity of the method is in the range of 1 nmol/L. Before the start of the investigations, an estimate of the feasibility or a preliminary test was carried out in order to be able to assess the suitability of the method.
In addition, the topically applied amount was reduced to 50 μL each. In addition, in the main experiment, the lower compartment was not filled with medium (contains folic acid) but with 1 mL Hank balanced salt solution (without folic acid). Following a total of 24 hours incubation with the test substances, the skin models were again incubated with Resazurin to. […] In the main trial, two independent passes were completed.
In the lower compartment, 1 mL each of HBSS was initially charged. The results shown in the figures mentioned above were determined from 100 μL aliquots of this buffer amount.
In the apical compartment, 3 μmol of folate (solutions) or 0.3 μmol of folate are supplemented (in 50 μL).

[3] = system: primary keratinocytes of human skin; assay: Scratch Assay (in vitro wound healing model); assay type: cell-based; conditions: for free wound surface in photographs: 0.1%
Excerpt: To examine the effect of different folate preparations on wound healing the in vitro model Scratch Assay was employed. This in vitro model comprises the defined injuring of a closed cell layer and the subsequent regrowth of the cells to a closed layer in the presence of the test-substance compared to appropriate controls, i.e. (untreated) cells with no test-substance present.
The experimental procedure for the Scratch Assay was as follows: The employed cells are primary keratinocytes of human skin (C-12005, Promocell, Heidelberg, Germany). […] Three different dosages were then used for the Scratch Assay. Further, cells were cultivated in growth-limiting medium in order to show a possible growth promoting effect of the test substances. For the medium used (C-20011, Promocell, Heidelberg, Germany) a growth limitation could be achieved by either the omission or dilution of epidermal growth factor (EGF) or of a complex mixture of undefined factors derived from […] BPE). Usually, growth-limiting medium was achieved by the omission of EGF. For the actual Scratch Assay keratinocytes were cultivated in appropriate cell culture plates (6-well plates, 657160, Greiner BioOne, Frickenhausen, Germany) bearing position markings. Cells were grown to a closed monolayer. Then, cells were scratched with pipette tip along the position markings, thereby generating a cell free area (scratch, injury). Cell monolayers were washed to remove partially detached cells and then covered with medium comprising the test-substances in appropriate dosages. Regrowth of the cells into the cell free area was observed over time at 0 h, 6 h and 24 h and photographically documented at these times. Analysis was done by marking and calculating the cell-free area (software ImageJ) and comparing the calculated areas at the different time point. […]
FIGS. 4 and 5 show the cell-free area of the induced scratch after 6 h or 24 h. The measured values were expressed as a percentage of the starting area of the respective treatment group. […]

5-formyl-(6S)-tetrahydrofolic acid calcium salt [L-FTHF Ca]
IC70 (concentration at which viability is reduced to 70% of the untreated control; usable dose) [1]: 0.13%
concentration profile in skin over application time (human skin; 30 to 240 minutes application time): tendency to increased calcium levoleucovorin concentration both in the top 5 μm and deeper layers of the skin
Amount recovered (human skin; application period 30 min): 3.76 +/− 2.82 % of amount applied
Calcium levoleucovorin penetrated into the skin per area (human skin; application period 30 min): 0.37 +/− 0.27 μmol/cm^2
Amount recovered (human skin; application period 60 min): 3.28 +/− 2.58 % of amount applied
Calcium levoleucovorin penetrated into the skin per area (human skin; application period 60 min): 0.32 +/− 0.25 μmol/cm^2
Amount recovered (human skin; application period 120 min): 6.3 +/− 8.22 % of amount applied
Calcium levoleucovorin penetrated into the skin per area (human skin; application period 120 min): 0.62 +/− 0.8 μmol/cm^2
Amount recovered (human skin; application period 240 min, listed as Calcium levoleucovorin, calcium salt): 9.96 +/− 3.26 % of amount applied
Amount recovered (human skin; application period 240 min, listed as calcium levoleucovorin, calcium salt): 10 % of amount applied
Calcium levoleucovorin penetrated into the skin per area (human skin; application period 240 min): 0.97 +/− 0.32 μmol/cm^2
folic acid concentration (comparison with other skin models) ([2]; after 24 h): twice as high
methylfolate concentration in basal compartment (comparison) ([2]; after 24 h): relatively high
formylfolate concentration in basal compartment ([2]; after 24 h, outside calibration line, absolute values uncertain): 150 µmol/L
folic acid (folate) concentration in basal compartment ([2]; after 24 h supplementation): about 200 nmol/L

5-methyl-(6S)-tetrahydrofolic acid di choline salt [L-MTHF di choline]
IC70 (concentration at which viability is reduced to 70% of the untreated control; usable dose) [1]: 0.14%
free wound surface in photographs ([3]; after 6 h): hardly any surface is overgrown
free wound surface in photographs ([3]; after 24 h): it becomes difficult to mark a cell-free area
methylfolate concentration in basal compartment (comparison) ([2]; after 4 h, compared with models supplemented with L-FTHF or folate cream): significantly higher concentrations
formylfolate concentration in recipient compartment (basal) ([2]; after 8 h): cannot be detected
methylfolate concentration in basal compartment (comparison) ([2]; after 8 h): highest concentrations
formylfolate in basal compartment samples ([2]; after 24 h): cannot be detected
methylfolate concentration in basal compartment (comparison) ([2]; after 24 h): significantly higher than the highest standard
methylfolate concentration in basal compartment, maximum ([2]; after 24 h, peak outside calibration line, absolute value uncertain): 120 µmol/L

N=C(N)NCCC[C@H](N)C(=O)O.N=C(N)NCCC[C@H](N)C(=O)O.Nc1nc2c(c(=O)[nH]1)N(C=O)[C@@H](CNc1ccc(C(=O)N[C@@H](CCC(=O)O)C(=O)O)cc1)CN2 [L-FTHF di arginine, 5-formyl-(6S)-tetrahydrofolic acid di L-arginine salt]
IC70 (concentration at which viability is reduced to 70% of the untreated control; usable dose) [1]: 0.12%
regrowth of cells into cell-free area of scratch ([3]; after 24 h, versus standard medium and FBS control): promoted dose-dependent reversal of “healing”
methylfolate concentration in basal compartment (comparison) ([2]; after 24 h): approximately half
